Data from US20090050143A1, “MEDICINAL FORMULATION CONTAINER WITH A TREATED METAL SURFACE” (priority 2006, published 2009).

Key:
[1] = Drug adsorption to aluminum MDI canister on storage; format: physicochemical; conditions: 3 days at room temperature
Protocol: The internal surface of an aluminum metered dose inhaler canister was treated with compound A1 (n-C4F9—(CH2)11—PO3H2) which may be prepared as described in Example 2 of U.S. Pat. No. 6,824,882, the disclosure of which is hereby incorporated by reference) as follows. The canister was initially soaked in heptane (analytical reagent grade) for 30 minutes while exposed to ultrasonic agitation. The canister was then rinsed with heptane (analytical reagent grade) for one minute followed by a rinse with isopropanol (analytical reagent grade) and allowed to air dry. The canister was then immersed in a 0.1% w/w solution of A1 in methyl tertiary butyl ether (analytical reagent grade) for 30 minutes while exposed to ultrasonic agitation. The canister was then rinsed in methyl tertiary butyl ether (analytical reagent grade) for one minute and allowed to air dry.
Fluticasone propionate was added to HFA-134A propellant to prepare a medicinal formulation with a fluticasone propionate concentration of 0.0083% w/w. Approximately 13 g of medicinal formulation was added to the treated canister which was sealed with an untreated aluminum blind ferrule (i.e., a casing member lacking valve components). The canister was stored in an upright position after filling to prevent contact of the medicinal formulation with the untreated aluminum surface of the blind ferrule. The solution was stored in the canister for 3 days at room temperature. The amount of fluticasone propionate adsorbed to the canister was 2.4% (+/−1.1%) measured according to the method described above.
A canister was prepared and tested as described in Example 1 with the exception that the canister was filled with a 0.0083% w/w formulation of fluticasone propionate in HFA-227. The solution was stored in the canister for 3 days at room temperature. The amount of fluticasone propionate adsorbed to the canister was 9.7% (+/−6.5%) measured according to the method described above.
An untreated aluminum canister was filled with the medicinal formulation of Example 1. The solution was stored in the canister for 3 days at room temperature. The amount of fluticasone propionate adsorbed to the canister was 23.2% (+/−1.5%) measured according to the method described above.
An untreated aluminum canister was filled with the medicinal formulation of Example 2. The solution was stored in the canister for 3 days at room temperature. The amount of fluticasone propionate adsorbed to the canister was 35.5% (+/−1.8%) measured according to the method described above.

[2] = Total drug content of canisters filled from stainless steel filling system (HPLC); format: physicochemical; conditions: 0.0083% w/w suspension in HFA-227a
Protocol: The vessel was initially soaked in heptane (analytical reagent grade) for 30 minutes while exposed to ultrasonic agitation. The vessel was then rinsed with heptane (analytical reagent grade) for one minute followed by a rinse with isopropanol (analytical reagent grade) and allowed to air dry. The vessel was then immersed in a 0.1% w/w solution of A1 in methyl tertiary butyl ether (analytical reagent grade) for 30 minutes while exposed to ultrasonic agitation. The vessel was then rinsed in methyl tertiary butyl ether (analytical reagent grade) for one minute and allowed to air dry. Additional components of the filling system that contact medicinal formulation during the filling process (solenoid, tubing, stirring paddles, mixing baffles) were treated in the same manner as the vessel.
HFA-227a (600.7 g) was chilled and added to the filling vessel. […] The total drug content (i.e., drug suspended in formulation, as well as drug adhered to the canister) of 6 representative canisters (numbers 9, 11, 13, 14, 16, and 18 in the filling sequence) was analyzed using high performance liquid chromatography. A target total drug content was calculated based on the exact amount of formulation added to each canister and the nominal concentration in the filling vessel. […]

## CCC(=O)O[C@]1(C(=O)SCF)[C@H](C)C[C@H]2[C@@H]3C[C@H](F)C4=CC(=O)C=C[C@]4(C)[C@@]3(F)[C@@H](O)C[C@@]21C [fluticasone propionate]
[1]; A1-treated aluminum canister, 0.0083% w/w in HFA-134A
  amount of fluticasone propionate adsorbed to the canister: 2.4%
[1]; A1-treated aluminum canister, 0.0083% w/w in HFA-227
  amount of fluticasone propionate adsorbed to the canister: 9.7%
[1]; untreated aluminum canister, 0.0083% w/w in HFA-134A
  amount of fluticasone propionate adsorbed to the canister: 23.2%
[1]; untreated aluminum canister, 0.0083% w/w in HFA-227
  amount of fluticasone propionate adsorbed to the canister: 35.5%
[2]; A1-treated stainless steel filling system, 6 canisters
  average total drug content in the filled canisters, less than the target total drug content: 2%
[2]; untreated stainless steel filling system
  average total drug content in the filled canisters, less than the target total drug content: 58%
